Results published in paper PMC10988762, “Inhibition of malaria and babesiosis parasites by putative red blood cell targeting small molecules” (Frontiers in Cellular and Infection Microbiology, 2024).
pIC50: −log10 of the molar value. Where two headings read alike, the source gives them in different places.

How the values were obtained:
[1] = system: BdC9 line of B. divergens; experiment: Inhibitor susceptibility dose-response assay (SYBR-Green I), B. divergens; type: cell-based, Babesia divergens; settings: for pIC50: read-out: IC50 (S.D.), B. divergens; for fold lower IC50s against B. divergens than the Plasmodium spp.: B. divergens vs Plasmodium spp.
Experimental: (§1) The P. falciparum strains 3D7 and Dd2 were obtained from the Walter and Eliza Hall Institute (Melbourne, Australia) and the Malaria Research and Reference Reagent Resource, respectively. […] B. divergens parasites were maintained and assayed in mixed stages without synchronization.
(§2) Ring-stage P. falciparum (1%-parasitemia starting, 1%-hematocrit) and asynchronous B.divergens (0.5%-parasitemia starting, 3%-hematocrit) were incubated with plated compounds for 72h, and ring-stage P. knowlesi (1%-parasitemia starting, 1%-hematocrit) for 48h, before lysis and staining with dye. To quantify the species-specificity of the inhibitors, we divided the range of IC50s across the 4 test lines by the average IC50 across the same lines: inhibitors with increased scores show species-specific activity and reduced scores indicate broad-spectrum, pan-species activity.

uninfected RBCs [2] = settings: for hemolysis of RBCs, in words: 5x P. falciparum 3D7-IC50, 24, 48, 72h
Source text: (§3) We analyzed samples using a volumetric MACSQuant Analyzer Flow Cytometer (Miltenyi Biotec), manually resuspending each row immediately prior to sample uptake. We recorded 10,000 total events for each condition at the instrument-defined low flow rate. We assessed all compounds in 2 separate experiments with blood from different donors. […] All samples were gated for single cell events.

uninfected RBCs [3] = experiment: Cellular phosphatidylserine exposure assay (annexin V flow cytometry);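 note: flow cytometry recording 10,000 events per condition, gated on single cells, with the two experiments using blood from separate donors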
Source text: as §3

P. knowlesi YH1 strain = experiment: microbe, parasite or virus in culture; type: cell-based, Plasmodium knowlesi; settings: read-out: IC50 (S.D.), P. knowlesi
Experimental: as §1, §2

P. falciparum strain Dd2 = experiment: Inhibitor susceptibility dose-response assay (SYBR-Green I), P. falciparum Dd2; type: cell-based, Plasmodium falciparum; settings: read-out: IC50 (S.D.), P. falciparum-Dd2
Experimental: as §1, §2

P. falciparum strain 3D7 = experiment: Inhibitor susceptibility dose-response assay (SYBR-Green I), P. falciparum 3D7; type: cell-based, Plasmodium falciparum; settings: read-out: IC50 (S.D.), P. falciparum-3D7
Experimental: as §1, §2

AQP3 = system: AQP3; set-up: method as in PMID 22624030; settings: RBC assay: AQP3 glycerol conductance ref PMID 22624030; read-out: Micromolar IC50 (RBC), AQP3 glycerol conductance; cited from earlier work
[4] = system: breast cancer cell line panel; set-up: method as in PMID 21159648; settings: cellular proliferation ref PMID 21159648; read-out: Micromolar IC50 (breast cancer cell line panel); cited from earlier work
in vitro = settings: human
Source text: as §3

[5] = system: AP-1 transcription factor activation; set-up: method as in PMID 17175522; settings: ref PMID 17175522; read-out: Micromolar IC50 (AP-1 transcription factor activation); cited from earlier work
[6] = system: serum- or growth factor induced fibroblasts; set-up: method as in PMID 8519682; settings: cellular proliferation ref PMID 8519682; read-out: Micromolar IC50 (serum- or growth factor induced fibroblasts); cited from earlier work
human epithelial cells = system: human epithelial cells; set-up: method as in PMID 17145850; settings: cellular proliferation ref PMID 17145850; read-out: Micromolar IC50 (human epithelial cells); cited from earlier work
[7] = system: alloresponsive T cell proliferation; set-up: method as in PMID 24131367; settings: ref PMID 24131367; read-out: Micromolar IC50 (alloresponsive T cell proliferation); cited from earlier work
[8] = biological target: ELK1-luciferase assay, HeLa; settings: read-out: Micromolar IC50 (ELK1-luciferase assay, HeLa); ref PMID 15225706; cited from earlier work
HCT-116 = settings: read-out: Micromolar IC50 (anchorage formation, HCT-116); ref PMID 15225706; cited from earlier work
sickle RBCs = system: sickle RBCs; set-up: method as in PMID 33208899; settings: RBC assay: PS exposure in sickle RBCs ref PMID 33208899; read-out: Micromolar IC50 (RBC), PS exposure in sickle RBCs; cited from earlier work
P. falciparum (3D7) = experiment: Assay for inhibition of parasite proliferation via RBC-targeting (transient exposure of RBCs, wash, then infection); type: cell-based, Plasmodium falciparum
Experimental: All plates were frozen for storage before assay. For assay, duplicate plates were preincubated with donor O+ RBCs at 2% hematocrit at 37°C in 50µL for 4-5 hours. Following preincubation, one but not the other plate in each pair was washed 4X in complete RPMI to dilute inhibitor. We transferred RBCs from both washed and unwashed plates to black, clear bottom 96-well plates (Corning Cat. No. 3904) and supplemented these suspensions with MACS-purified P. falciparum (3D7) schizonts for a starting parasitemia of 0.1% - 0.25% at 1% hematocrit. Following 72h incubation in standard culture conditions, samples were processed for SYBR-Green I signal ([Mandt et al., 2019]). […] To identify host-targeting compounds, we compared DMSO-treated to inhibitor-treated samples (Students t-test, paired). We carried out the assay with 1 µM mefloquine (Sigma-Aldrich Cat. No. M2319) as a control for reversible inhibition. All assays were conducted in biological triplicate, with each experiment utilizing different donor RBCs. For select compounds, we carried out this same assay in a dose-response series (n=3 experiments). Following normalization to DMSO-controls, we assessed inhibitor activity following transient exposure of RBCs by Two-Way ANOVA tests for repeated measures (Graphpad Prism v9): high P values indicate support for the null hypothesis that dose-dependent inhibition is not modulated by dilution after exposure, consistent with a direct inhibitory effect of the compounds on RBCs persisting after transient exposure.

[9] = 72h, ring-stage, n=3 experiments (or 2 where indicated with *)
[10] = Babesia divergens, 72h, asynchronous, n=3 experiments (or 2 where indicated with *)
[11] = 24h, 5x P. falciparum 3D7-IC50, % of RBCs, mean of 2 experiments
[12] = 48h, 5x P. falciparum 3D7-IC50, % of RBCs, mean of 2 experiments
[13] = Plasmodium falciparum, DD2, 72h, ring-stage, n=3 experiments (or 2 where indicated with *)
[14] = Plasmodium falciparum, 3D7, 72h, ring-stage, n=3 experiments (or 2 where indicated with *)
[15] = uninfected RBCs (red blood cells), 1% hematocrit
[16] = Plasmodium falciparum, DD2, 72 h
[17] = Plasmodium falciparum, 3D7, 72 h
[18] = 72h, 5x P. falciparum 3D7-IC50, % of RBCs, mean of 2 experiments

[Cl][Au]([Cl])[Cl].c1cnc2c(c1)ccc1cccnc12 [Auphen]
pIC50 ([1]; 72h, asynchronous, n=3 experiments (or 2 where indicated with *)): 5.55
Hemolysis (%) 24h (uninfected RBCs [2]): -7%
Hemolysis (%) 48h (uninfected RBCs [2]): 5%
Hemolysis (%) 72h (uninfected RBCs [2]): 10. %
Phosphatidylserine exposure (%) 24h (uninfected RBCs [3]): 3%
Phosphatidylserine exposure (%) 48h (uninfected RBCs [3]): 10. %
Phosphatidylserine exposure (%) 72h (uninfected RBCs [3]): 24%
pIC50 (P. knowlesi YH1 strain; 48h, ring-stage, n=3 experiments (or 2 where indicated with *)): 5.70
pIC50 (P. falciparum strain Dd2; [9]): 6.21
pIC50 (P. falciparum strain 3D7; [9]): 5.96
pIC50 (AQP3): 6.10

O=C(O)c1ccc2c(c1)nc(Nc1cccc(Cl)c1)c1ccncc12 [CX-4945]
pIC50 [4]: 4.70 to 5.77
pIC50 [1, 10]: 5.00
hemolysis of RBCs, in words (uninfected RBCs [2]): similarly low levels
Phosphatidylserine exposure (%) 72h (uninfected RBCs [3]): 3%
PS exposure on RBCs, in words (uninfected RBCs [3]; 5x P. falciparum 3D7-IC50, 24, 48, 72h): similarly low levels
Phosphatidylserine exposure (%) 24h (uninfected RBCs [3]; [11]): 2%
Phosphatidylserine exposure (%) 48h (uninfected RBCs [3]; [12]): 2%
hemolysis at 24 h, 5 x P. falciparum 3D7-IC50 (in vitro): -4%
hemolysis at 48 h, 5 x P. falciparum 3D7-IC50 (in vitro): -1%
hemolysis at 72 h, 5 x P. falciparum 3D7-IC50 (in vitro): 16%
pIC50 (P. knowlesi YH1 strain; Plasmodium knowlesi, 48 h): 5.05
pIC50 (P. falciparum strain Dd2; [13]): 5.22
pIC50 (P. falciparum strain 3D7; [14]): 5.05

COc1ccc2c(c1)c(C1=C(c3c[nH]c4ccccc34)C(=O)NC1=O)cn2CCCN(C)C [Go6983]
fold lower IC50s against B. divergens than the Plasmodium spp. [1]: at least 3 fold
pIC50 ([1]; Babesia divergens, 72 h): 6.30
pIC50 [5]: 7.00
Phosphatidylserine exposure (%) 72h (uninfected RBCs [3]): 4%
Phosphatidylserine exposure (%) 24h (uninfected RBCs [3]; [11]): 2%
Phosphatidylserine exposure (%) 48h (uninfected RBCs [3]; [12]): 2%
hemolysis at 24 h, 5 x P. falciparum 3D7-IC50 (in vitro; [15]): -7%
hemolysis at 48 h, 5 x P. falciparum 3D7-IC50 (in vitro; [15]): 5%
hemolysis at 72 h, 5 x P. falciparum 3D7-IC50 (in vitro; [15]): 12%
pIC50 (P. knowlesi YH1 strain; Plasmodium knowlesi, 48 h): 5.40
pIC50 (P. falciparum strain Dd2; [16]): 5.70
pIC50 (P. falciparum strain 3D7; [17]): 5.70

COc1ccc(S(=O)(=O)N(CCO)c2ccccc2CN(C)C/C=C/c2ccc(Cl)cc2)cc1 [KN-93 Phosphate]
pIC50 ([1]; Babesia divergens, 72 h): 5.22
pIC50 [6]: 4.92 to 5.22
Phosphatidylserine exposure (%) 24h (uninfected RBCs [3]; [11]): 2%
Phosphatidylserine exposure (%) 48h (uninfected RBCs [3]; [12]): 2%
Phosphatidylserine exposure (%) 72h (uninfected RBCs [3]; [18]): 4%
hemolysis at 24 h, 5 x P. falciparum 3D7-IC50 (in vitro; [15]): -4%
hemolysis at 48 h, 5 x P. falciparum 3D7-IC50 (in vitro; [15]): 7%
hemolysis at 72 h, 5 x P. falciparum 3D7-IC50 (in vitro; [15]): 16%
pIC50 (P. knowlesi YH1 strain; Plasmodium knowlesi, 48 h): 5.30
pIC50 (P. falciparum strain Dd2; [16]): 5.52
pIC50 (P. falciparum strain 3D7; [17]): 5.41

CN(C)CCOc1ccc(-c2nc(-c3ccncc3)c(-c3ccc4c(c3)CC/C4=N\O)[nH]2)cc1 [SB590885]
pIC50 ([1]; Babesia divergens, 72 h): 5.40
Phosphatidylserine exposure (%) 24h (uninfected RBCs [3]; [11]): 2%
Phosphatidylserine exposure (%) 48h (uninfected RBCs [3]; [12]): 2%
Phosphatidylserine exposure (%) 72h (uninfected RBCs [3]; [18]): 4%
hemolysis at 24 h, 5 x P. falciparum 3D7-IC50 (in vitro; [15]): -4%
hemolysis at 48 h, 5 x P. falciparum 3D7-IC50 (in vitro; [15]): 4%
hemolysis at 72 h, 5 x P. falciparum 3D7-IC50 (in vitro; [15]): 11%
pIC50 (P. knowlesi YH1 strain; Plasmodium knowlesi, 48 h): 5.85
pIC50 (P. falciparum strain Dd2; [16]): 6.00
pIC50 (human epithelial cells): 5.21 to 5.96
pIC50 (P. falciparum strain 3D7; [17]): 6.15

CN1CCN(c2nc(C3=C(c4c[nH]c5ccccc45)C(=O)NC3=O)c3ccccc3n2)CC1 [Sotrastaurin]
pIC50 [1, 10]: 5.00
Phosphatidylserine exposure (%) 24h (uninfected RBCs [3]; [11]): 2%
Phosphatidylserine exposure (%) 48h (uninfected RBCs [3]; [12]): 2%
Phosphatidylserine exposure (%) 72h (uninfected RBCs [3]; [18]): 4%
hemolysis at 24 h, 5 x P. falciparum 3D7-IC50 (in vitro; [15]): -7%
hemolysis at 48 h, 5 x P. falciparum 3D7-IC50 (in vitro; [15]): 9%
hemolysis at 72 h, 5 x P. falciparum 3D7-IC50 (in vitro; [15]): 17%
pIC50 (P. knowlesi YH1 strain; Plasmodium knowlesi, 48 h): 5.30
pIC50 [7]: 7.05
pIC50 (P. falciparum strain Dd2; [13]): 5.52
pIC50 (P. falciparum strain 3D7; [14]): 5.30

N#CC(=C(N)Sc1ccccc1N)C(C#N)=C(N)Sc1ccccc1N [U0126]
pIC50 ([1]; Babesia divergens, 72 h): 4.52
Phosphatidylserine exposure (%) 48h (uninfected RBCs [3]): 4%
Phosphatidylserine exposure (%) 72h (uninfected RBCs [3]): 9%
Phosphatidylserine exposure (%) 24h (uninfected RBCs [3]; [11]): 2%
hemolysis at 24 h, 5 x P. falciparum 3D7-IC50 (in vitro): 3%
hemolysis at 48 h, 5 x P. falciparum 3D7-IC50 (in vitro): 9%
hemolysis at 72 h, 5 x P. falciparum 3D7-IC50 (in vitro): 20%
pIC50 (P. knowlesi YH1 strain; Plasmodium knowlesi, 48 h): 4.70
pIC50 [8]: 6.53
pIC50 (P. falciparum strain Dd2; [16]): 5.41
pIC50 (HCT-116): 4.71
pIC50 (P. falciparum strain 3D7; [17]): 5.28

Clc1cccc(Cl)c1CSc1nnc(-c2cnccn2)s1 [Yoda1]
pIC50 (sickle RBCs): ~5.70
fold lower IC50s against B. divergens than the Plasmodium spp. [1]: at least 3 fold
pIC50 ([1]; Babesia divergens, 72 h): 5.95
hemolysis of RBCs, in words (uninfected RBCs [2]): rapid onset of hemolysis comparable to control compound A23187
Phosphatidylserine exposure (%) 48h (uninfected RBCs [3]; [12]): 100. %
Phosphatidylserine exposure (%) 72h (uninfected RBCs [3]; [18]): 100. %
hemolysis at 24 h, 5 x P. falciparum 3D7-IC50 (in vitro; [15]): 7%
hemolysis at 48 h, 5 x P. falciparum 3D7-IC50 (in vitro; [15]): 38%
hemolysis at 72 h, 5 x P. falciparum 3D7-IC50 (in vitro; [15]): 57%
pIC50 (P. knowlesi YH1 strain; Plasmodium knowlesi, 48 h): 5.15
antimalarial activity retained after transient exposure of RBCs, relative to continuous exposure to inhibitor (P. falciparum (3D7); 5x P. falciparum 3D7-IC50, RBC preincubation 4-5 hours then washed, 100% = inhibition with continuous exposure, P<0.01): ≥ 80%
inhibitory activity following transient exposure of RBCs, in words (P. falciparum (3D7); transient vs continued exposure, dose-response format where stated, n=3): statistically indistinguishable from inhibition with continued exposure
pIC50 (P. falciparum strain Dd2; [16]): 5.22
pIC50 (P. falciparum strain 3D7; [17]): 5.38
